± gives the standard deviation of the averaged measurements.
How the values were obtained:
Assay in all cases: LOEC (log10 uM (lowest observed effect concentration))
[1] = compound: OCC(F)(F)C(F)(F)C(F)(F)C(F)(F)C(F)(F)C(F)(F)C(F)(F)C(F)(F)CO [1H,1H,10H,10H-Perfluorodecane-1,10-diol]
Protocol: (§1)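 BioMAP Diversity Plus panel in human primary cell co-cultures, 4 concentrations in duplicate blinded samples. Responses are log10 fold change versus DMSO control, processed with tcpl v2.1.0. A hit is called when responses at any concentration exceed the cutoff (the larger of 3*bmad or log10(1.2)); the lowest observed effect concentration (modl_ga, log10 uM) is reported for hits.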

[2] = compound: FC(F)(I)C(F)(F)C(F)(F)C(F)(F)C(F)(F)C(F)(F)I [1,6-Diiodoperfluorohexane]
Protocol: as §1

[3] = compound: C=CC(=O)OCC(F)(F)C(F)(F)C(F)(F)C(F)(F)COC(=O)C=C [1H,1H,6H,6H-Perfluorohexane-1,6-diol diacrylate]
Protocol: as §1

[4] = compound: O=S(=O)(OCC(F)(F)F)C(F)(F)C(F)(F)C(F)(F)C(F)(F)F [2,2,2-Trifluoroethyl perfluorobutanesulfonate]
Protocol: as §1

[5] = compound: O=C(CC(=O)C(F)(F)C(F)(F)C(F)(F)F)c1cccs1 [(Perfluorobutyryl)-2-thenoylmethane]
Protocol: as §1

[6] = compound: OC(C(F)(F)F)(C(F)(F)F)C(O)(C(F)(F)F)C(F)(F)F [Perfluoropinacol]
Protocol: as §1

[7] = compound: C=CC(=O)OCC(F)(F)C(F)(F)C(F)(F)C(F)(F)C(F)(F)C(F)(F)C(F)(F)C(F)F [1H,1H,9H-Perfluorononyl acrylate]
Protocol: as §1

[8] = compound: OCCC(F)(F)C(F)(F)C(F)(F)C(F)(F)C(F)(F)C(F)(F)C(F)(F)C(F)(F)F [8:2 Fluorotelomer alcohol]
Protocol: as §1

[9] = compound: OCC(F)(F)C(F)(F)C(F)(F)C(F)(F)C(F)(F)C(F)(F)F [6:1 Fluorotelomer alcohol]
Protocol: as §1

[10] = compound: OCCCC(F)(F)C(F)(F)C(F)(F)C(F)(F)C(F)(F)C(F)(F)C(F)(F)C(F)(F)F [3-(Perfluorooctyl)propanol]
Protocol: as §1

[11] = compound: C=CC(=O)OCCC(F)(F)C(F)(F)C(F)(F)C(F)(F)C(F)(F)C(F)(F)C(F)(F)C(F)(F)F [8:2 Fluorotelomer acrylate]
Protocol: as §1

[12] = compound: Cc1ccc(S(=O)(=O)OCC(F)(F)C(F)(F)C(F)(F)C(F)(F)C(F)(F)C(F)F)cc1 [1H,1H,7H-Perfluoroheptyl 4-methylbenzenesulfonate]
Protocol: as §1

[13] = compound: CN(Cc1cnc2nc(N)nc(N)c2n1)c1ccc(C(=O)N[C@@H](CCC(=O)O)C(=O)O)cc1 [Methotrexate]
Protocol: as §1

[14] = compound: O=C(O)C(F)(F)C(F)(F)C(F)(F)C(F)(F)C(F)(F)C(F)(F)C(F)(F)F [Perfluorooctanoic acid]
Protocol: as §1

[15] = compound: OCC(F)(F)C(F)(F)C(F)(F)C(F)(F)C(F)(F)C(F)(F)C(F)(F)C(F)(F)C(F)(F)C(F)(F)C(F)(F)F [11:1 Fluorotelomer alcohol]
Protocol: as §1

[16] = compound: O=P(O)(O)CCC(F)(F)C(F)(F)C(F)(F)C(F)(F)C(F)(F)C(F)(F)F [2-(Perfluorohexyl)ethylphosphonic acid]
Protocol: as §1

[17] = compound: FC(F)(F)C(F)(F)C(F)(F)C(F)(F)CCI [1H,1H,2H,2H-Perfluorohexyl iodide]
Protocol: as §1

[18] = compound: O=C(O)C(F)(F)C(F)(F)C(F)(F)C(F)(F)C(F)(F)C(F)(F)C(F)(F)F [Ammonium perfluorooctanoate]
Protocol: as §1

Test System | LOEC (log10 uM) [1] | LOEC (log10 uM) [2] | LOEC (log10 uM) [3] | LOEC (log10 uM) [4] | LOEC (log10 uM) [5] | LOEC (log10 uM) [6] | LOEC (log10 uM) [7] | LOEC (log10 uM) [8] | LOEC (log10 uM) [9] | LOEC (log10 uM) [10] | LOEC (log10 uM) [11] | LOEC (log10 uM) [12] | LOEC (log10 uM) [13] | LOEC (log10 uM) [14] | LOEC (log10 uM) [15] | LOEC (log10 uM) [16] | LOEC (log10 uM) [17] | LOEC (log10 uM) [18]
hDFCGF IP10 down | 1.78 | 0.845 | 0.301 | 1.78 | 1.3 | 1.3 | 1.78 | 1.3 | 1.78 | 0.845 |  |  |  |  |  |  |  | 
KF3CT MMP9 down |  | 0.845 | 1.3 |  | 0.845 | 1.78 |  | 1.07 ± 0.32 |  | 1.3 | 1.54 ± 0.34 |  |  |  |  |  |  | 
SAg SRB down |  | 1.78 | 1.3 |  | 1.3 | 1.3 |  | 1.3 |  | 1.3 |  | 1.78 |  |  |  |  |  | 
BT sIgG down | 1.78 | 1.78 | 0.845 |  | 1.3 | 0.845 |  | 1.78 |  | 1.78 |  |  | 0 |  |  |  |  | 
BF4T tPA down | 1.3 | 0.845 | 1.3 |  | 0.573 ± 0.39 |  |  | 1.07 ± 0.32 |  | 1.3 |  |  |  | 1.31 ± 0.66 |  |  |  | 
SAg PBMCCytotoxicity down | 1.78 | 1.3 | 1.07 ± 0.32 |  | 1.78 |  | 1.54 ± 0.34 | 1.3 |  | 1.3 |  |  |  |  | -1.22 |  |  | 
IMphg IL10 down | 1.54 ± 0.34 | 0.845 | 1.3 |  | 1.3 | 1.3 |  | 1.07 ± 0.32 |  | 1.3 |  | 1.07 ± 0.32 |  | 1.78 |  |  |  | 
hDFCGF Proliferation up |  |  |  |  |  |  |  |  |  |  |  |  |  | 1.3 |  | 1.78 |  | 
hDFCGF MIG down | 1.78 | 0.845 | 0.301 |  | 1.3 | 1.78 | 1.54 ± 0.34 | 1.3 |  | 1.07 ± 0.32 |  |  |  |  |  |  | 1.78 | 
LPS IL1a down |  | 1.3 | 1.3 | 1.54 ± 0.34 |  |  |  | 1.3 |  | 0.845 |  |  |  |  | -0.222 |  |  | 
BE3C MMP1 up |  |  | 1.3 |  |  |  |  |  |  |  |  |  |  | 1.78 |  |  |  | 1.3
BT xIL17F down | 1.78 | 1.54 ± 0.34 | 0.573 ± 0.39 |  | 1.3 | 1.54 ± 0.34 | 1.3 | 1.78 | 1.78 | 1.3 |  |  |  |  |  |  |  | 
3C IL8 up |  |  |  |  |  |  |  |  |  |  |  |  |  | 1.78 |  |  |  | 
BT xTNFa down | 1.78 | 1.3 | 0.301 |  | 1.3 | 1.78 | 1.3 | 1.54 ± 0.34 | 1.78 | 1.3 |  |  |  |  |  |  |  | 
hDFCGF MCP1 down | 1.54 ± 0.34 | 0.845 | 0.845 |  | 1.3 |  |  | 1.3 |  | 0.845 |  | 1.07 ± 0.32 |  |  |  |  |  | 
4H Eotaxin3 down |  | 1.3 | 1.3 |  | 1.3 | 1.3 |  | 1.54 ± 0.34 |  | 1.3 |  |  |  |  |  |  | 1.78 | 
LPS CD69 down |  | 1.78 | 1.3 |  |  | 1.07 ± 0.32 |  | 1.07 ± 0.32 |  | 1.54 ± 0.34 |  |  |  |  |  |  |  | 1.78
KF3CT IL8 down | 1.78 | 1.07 ± 0.32 | 1.3 |  |  |  |  |  |  | 1.3 | 1.54 ± 0.34 | 1.3 |  |  |  |  |  | 
4H Pselectin up |  |  |  |  |  |  |  |  |  |  |  | 1.78 |  |  |  |  |  | 
IMphg MIP1a down | 1.78 | 1.54 ± 0.34 |  | 1.54 ± 0.34 |  |  |  |  |  | 1.54 ± 0.34 |  |  |  |  |  |  |  | 
hDFCGF Proliferation down | 1.54 ± 0.34 | 0.301 | 0.301 |  | 0.845 | 0.845 | 1.3 | 0.845 | 1.78 | 0.845 |  |  |  |  |  |  |  | 

— the supplement of paper PMC10331698
